{"source": "paper PMC7648750", "about": "“In vitro and in vivo BNCT investigations using a carborane containing sulfonamide targeting CAIX epitopes on malignant pleural mesothelioma and breast cancer cells” (Scientific Reports, 2020)", "key": {"MCF7 cells [1]": {"system": "MCF7 cells", "assay": "MTT cell vitality assay", "format": "cell-based, human", "conditions": "normoxia", "experimental": "(§1) The MTT assay is based on the reduction in the mitochondria of metabolically active cells by succinate dehydrogenase obtaining a precipitation of purple formazan crystal. The assay was carried out using the same protocol reported by Azzi et al[42]. Briefly, AB22, ZL34 and MCF7 cells were seeded at a density of 7 × 10^3, 5 × 10^3 and 1 × 10^4 cells per well, respectively, in a 96-well microtiter plate. After 24 h at 37 °C and 5% CO2, they were incubated with increasing concentration of CA-SF or AZ for 24 h in a condition of normoxia at 37 °C and 5% CO2 by adding stock solutions in dimethyl sulfoxide (DMSO). In all the conditions the concentration of DMSO during the cell incubation was maintained under 0.25% (v/v) in cell medium. After the incubation, the medium was removed and each well was incubated with thiazolyl blue tetrazolium bromide (Sigma) dissolved in the medium at a concentration of 0.45 mg/mL for 4 h at 37 °C and 5% CO2. Then, after medium elimination, 150 µL of DMSO were added into each well to solubilise the formazan salt crystals produced by the metabolism of live cells and the microplate was incubated at room temperature (RT) for 30 min. Finally, absorbance was measured at 570 nm using an iMark microplate reader (Biorad). Cell vitality was reported as the percentage of […] cells observed in the treated samples relative to that observed in the non-treated control cells."}, "ZL34 cells [2]": {"system": "ZL34 cells", "assay": "MTT cell vitality assay", "format": "cell-based, human", "conditions": "normoxia", "experimental": "as §1"}, "MCF7 cells [3]": {"system": "MCF7 cells", "assay": "Cell uptake of boron (ICP-MS)", "format": "cell-based, human", "conditions": "MCF7, 72 µM CA-SF in culture medium, 24 h, 37 °C", "experimental": "(§2) For the in vitro uptake experiments, 6 × 10^5 MCF7, 4.5 × 10^5 ZL34 and 2 × 10^5 AB22 were seeded in 6 cm of diameter dishes. After 24 h for MCF7 and ZL34 and after 72 h for AB22, the cells were incubated for 24 h with increasing concentration of CA-SF. All the incubations were performed in condition of normoxia at 37 °C, 5% CO2. At the end of the incubation, cells were washed three times with 3 ml ice-cold PBS and detached with 0.05% trypsin and 0.02% EDTA. Finally, all cell samples were transferred in falcon tubes and sonicated at 30% of power for 30 s in ice. The boron content of each cell sample lysates was determined by ICP-MS technique (see below). The milligrams of proteins, proportional to the number of cells, of each cell sample lysate, was evaluated by the Bradford assay (Biorad) using bovine serum albumin as a standard.\n(§3) Boron content from cell samples, mice organs, plasma and tumours were determined using inductively coupled plasma mass spectrometry (ICP-MS) (Element-2; Thermo-Finnigan, Rodano (MI), Italy).\n(§4) Sample digestion was performed using a high performance Microwave Digestion System (ETHOS UP Milestone, Bergamo, Italy) after the addition of concentrated HNO3 (70%) to cell lysates (1:1), in a final volume of 0.4 mL. […] The amounts of boron µg /g tissue were thus calculated considering that 1 g of tissue contains 1 × 10^9 cells."}, "ZL34 cells [4]": {"system": "ZL34 cells", "assay": "Cell uptake of boron (ICP-MS)", "format": "cell-based, human", "conditions": "ZL34, 187.5 µM CA-SF in culture medium, 24 h, 37 °C", "experimental": "as §2, §3, §4"}, "[5]": {"assay": "Mice weight monitoring after treatment", "format": "in vivo, Balb/c mice", "experimental": "CA-SF treatment on mesothelioma bearing mice, were performed in the thermal column of the TRIGA Mark II reactor at Pavia University (Italy) using the same protocol reported in reference^35. The irradiation facility was previously designed for TAOrMINA treatment developed to treat multiple liver metastases with BNCT. The chamber used to perform animal irradiation has a cross section of 40 × 20 cm^2, a length of 1 m and it starts at about 1.3 m from the center of the reactor core. The animal irradiation position has been characterised in terms of neutron spectrum and background photon dose[43]. To carry out neutron irradiation animals are positioned at the end of this chamber where the in air thermal neutron flux is approximately 1.2 × 10^10 n/cm^2s, operating the reactor at its maximum power. In this way the thermal neutron flux is maximised and the irradiation time is kept as short as possible (never longer than 15 min). The first mice group (irradiated and treated group, n = 5) received three doses of CA-SF/poli β cyclodextrin (37.5 mg boron/kg dose) prepared as described before. […]\nThe weight of IRR, CA-SF and CA-SF + IRR groups was monitored till the end of the experiment (Supplementary Figure S1)."}}, "data": [{"substance": "1-Sulfonamidomethyl-o-carborane [CA-SF]", "values": [{"measurement": "cell vitality measured by MTT", "setting": "MCF7 cells [1]; MCF7, 72 µM CA-SF, 24 h, 37 °C", "value": "about 80%"}, {"measurement": "percentage of viable cells with increasing concentration (MTT)", "setting": "MCF7 cells [1]; MCF7, 24 h, Fig. 3", "value": "steadily decreases"}, {"measurement": "cell vitality measured by MTT", "setting": "ZL34 cells [2]; ZL34, 187.5 µM CA-SF, 24 h, 37 °C", "value": "about 80%"}, {"measurement": "percentage of viable cells with increasing concentration (MTT)", "setting": "ZL34 cells [2]; ZL34, 24 h, Fig. 3", "value": "steadily decreases"}, {"measurement": "boron loaded into the target cells", "setting": "MCF7 cells [3]", "value": 60, "unit": "µg/g"}, {"measurement": "boron loaded into the target cells", "setting": "ZL34 cells [4]", "value": 90, "unit": "µg/g"}, {"measurement": "loss of initial weight", "setting": "[5]; treated and irradiated mice, CA-SF three doses + 15 min irradiation 250 kW", "value": 10, "unit": "%"}, {"measurement": "weight decrease at the end of the study", "setting": "[5]; treated mice (CA-SF, not irradiated)", "value": 5, "unit": "%"}]}]}
